The values that follow come from patent US6528455B1, “Phenoxy-and thiophenoxy acrylic acid compounds as herbicides” (BASF Aktiengesellschaft, priority 1999, dated 2003).

The experiment concerns dicotyledonous harmful plants (ABUTH, AMARE, IPOSS, SOLNI). In words: Greenhouse experiment, post-emergence treatment: herbicidal action. Format: in vivo. The following applies: application rates of 3.9 and 1.95 g/ha of a.s., 2 to 4 weeks. The text has this:
The test period extended over 2 to 4 weeks.

Turning to “3-(4-Chloro-2-fluoro-5-(1-methoxycarbonyl-1-vinyloxy)phenyl)-1-methyl-6-trifluoromethyl-2,4-(1H, 3H)pyrimidinedione [Example 2]”, the “herbicidal effect on dicotyledonous harmful plants compared with Comparative Example A” value is reported as “at least as good a herbicidal effect”.
